Laboratory results from article PMC6214108, “Synthesis and In Vitro Antitumor Activity of Novel Bivalent β-Carboline-3-carboxylic Acid Derivatives with DNA as a Potential Target” (International Journal of Molecular Sciences, 2018).

Legend:
[1] = tested on: MRC5 (normal lung cell) cell line; experiment: MTT cytotoxicity assay, MRC5; assay type: cell-based; conditions: Homo sapiens, 48 h
Method: [The procedure below names another cell line; the source lists this cell line under the same test.] (§1) The cytotoxic activities of β-carboline-3-carboxylic acid derivatives were investigated by the MTT method, as previously described. Cells (1 × 10^4 cells per well) seeded into 96-well plates (JET, Guangzhou, China) were incubated with DMEM containing various concentrations (2.5, 5, 10, 20, 40, and 80 μM) of β-carbolines (4A, 4B, 4C, 4D, 6a-6f, 6g-6l, 6m-6r, and 6s-6x) for 48 h at 37 °C and 5% CO2. Then, 10 µL of 5 mg/mL MTT reagent dissolved in PBS (Phosphate buffered saline) was added per well, and plates were incubated at 37 °C for 4 h. The medium was carefully removed and 100 µL dimethyl sulfoxide (DMSO) was added to dissolve the formazan crystals. The absorbance was measured at 490 nm with a microplate reader (ThermoFisher Scientific Inc., Waltham, MA, USA). The β-carbolines were dissolved in DMSO as stock solutions (10 mM) at −20 °C, and diluted in the final experimental solution using DMEM before use. A549 (lung carcinoma), SGC-7901 (gastric carcinoma), Hela (cervical carcinoma), SMMC-7721 (liver carcinoma), and MCF-7 (breast carcinoma) cell lines were used for the antitumor activity screening. The IC50 values were the mean values of three independent experiments.

[2] = tested on: SGC-7901 (gastric carcinoma) cell line; experiment: MTT cytotoxicity assay, SGC-7901; assay type: cell-based; conditions: Homo sapiens, 48 h, mean of three independent experiments, read-out: IC50 (μM) Mean ± SD, SGC-7901
Method: (§2) All cell lines (A549, SGC-7901, Hela, SMMC-7721, and MCF-7) were purchased from the American Type Culture Collection (Manassas, VA, USA), and were cultured in Dulbecco’s modified Eagle’s medium (DMEM, HycloneLaboratories Inc., Logan, Utah, USA) supplemented with 10% fetal bovine serum (FBS, Gibco&Invitrogen, Carlsbad, CA, USA) at 37 °C and 5% CO2.
as §1

[3] = tested on: SMMC-7721 (liver carcinoma) cell line; experiment: MTT cytotoxicity assay, SMMC-7721; assay type: cell-based; conditions: Homo sapiens, 48 h, mean of three independent experiments, read-out: IC50 (μM) Mean ± SD, SMMC-7721
Method: as §2, §1

[4] = tested on: A549 (lung carcinoma) cell line; experiment: MTT cytotoxicity assay, A549; assay type: cell-based; conditions: Homo sapiens, 48 h, mean of three independent experiments, read-out: IC50 (μM) Mean ± SD, A549
Method: as §2, §1

CT DNA = experiment: Thermal denaturation study with CT DNA; assay type: binding, calf; conditions: β-carboline/DNA ratio of 0.5, pH 7.4
Method: The DNA-binding modes of the β-carboline derivatives (4B, 6i, 4D, and 6u) with CT DNA were examined by DNA thermal denaturation experiments, as previously described. The solutions containing complexes of CT DNA and 4B, 6i, 4D, or 6u were heated using a thermostatic water bath, and the absorbance was measured in 1 °C steps from 30 °C to 95 °C at 260 nm (At) by a UV-Vis spectrophotometer (A is the absorbance of the solution at 260 nm at different temperatures, t is the temperature). The experiments were performed in PE buffer (pH = 7.4) with a β-carboline/DNA ratio of 0.5. The ΔTm value of DNA alone is 56.8 °C. ΔTm = ΔTm^(DNA + 4B, 6i, 4D, or 6u) − ΔTm^(DNA alone).
Figure 6 Thermal denaturation study of the complexes of β-carbolines (4B, 6i, 4D, and 6u) and CT-DNA. Melting temperatures were measured in PBS-EDTA buffer (1 mM Na2HPO4, 0.1 mM EDTA, PH 7.4) with a β-carboline (4B, 6i, 4D, and 6u)/DNA ratio of 0.5. ΔTm = (ΔTm^4B,6i,4D, or 6u + DNA − ΔTm^DNA).

A549 cells = experiment: Hoechst 33342/PI dual staining, morphological observation of apoptosis; assay type: cell-based; conditions: A549, 48 h, 8 μM (Figure 1 legend; method says 4 μM)
Method: The morphological observation of apoptosis was performed by Hoechst 33342 and propidium iodide (PI) dual staining according to the manufacturer’s instructions. A549 cells (2 × 10^4 cells per well) seeded into 24-well plates (JET, Guangzhou, China) were incubated with DMEM containing 4 μM of β-carbolines (4B, 6i, 4D, and 6u) for 48 h at 37 °C and 5% CO2. Then, the cells were stained by Hoechst 33342 and PI at 37 °C for 30 min in dark conditions. Finally, cells were observed and photographed with a fluorescence microscope (LeicaDM6B, Leica, Nussloch, Germany).
Figure 1 Morphological observation was performed by Hoechst 33342/propidium iodide (PI) dual staining. A549 cells were treated with 4B, 6i, 4D, and 6u at 8 μM for 48 h, and then stained with Hoechst 33342 and PI at 37 °C in dark conditions. The stained cells were observed under a fluorescence microscope (Leica DM6B, Leica, Nussloch, Germany). Hoechst 33342 was used to stain the living and apoptotic nuclei, and emitted blue fluorescence (upper). PI was used to stain the dead nuclei and emitted red fluorescence (lower).

bcl-2 protein = experiment: Western blot of bcl-2 protein; assay type: cell-based; conditions: A549, 2, 4, and 8 μM, 48 h
Method: (§3) The level of cytochrome C (Cyt C) in mitochondria, and the expression of bcl-2 protein, were evaluated by western blot. A549 cells (1 × 10^6 cells per well) seeded into 6-well plates (JET, Guangzhou, China) were incubated with DMEM containing various concentrations (2, 4, and 8 μM) of β-carbolines (6i and 6u) for 48 h at 37 °C and 5% CO2. Then, the cells were lysed with RIPA lysis buffer for 30 min on ice (containing 1% PMSF), centrifuged at 12,000× g for 5 min at 4 °C, and then the supernatants were transferred to 1.5 mL EP tubes. Proteins were separated by sodium dodecyl sulfate-polyacrylamide gel electrophoresis (SDS-PAGE) and blotted on polyvinylidene difluoride (PVDF) membranes (Millipore, Burlington, MA, USA), as previously described. The membranes were blocked for 2 h at r.t. with 5% non-fat milk in TBST buffer (20 mM Tris-HCl,150 mM NaCl and 0.05% Tween-20, pH7.4), and then incubated with the mouse anti-bcl-2 monoclonal antibody (Sigma, Saint Louis, MO, USA), anti-cytochrome C monoclonal antibody (Beyotime, Haimen, China), and anti-β-actin antibody (1:4000 dilution; Abcam, Cambridge, MA, USA) overnight at 4 °C, and finally incubated with the peroxidase conjugated goat anti-mouse IgG (Jackson ImmunoResearch Laboratories, West Grove, PA, USA) at 37 °C for 1 h. […]

[5] = tested on: cytochrome C (Cyt C) in mitochondria; experiment: Western blot of cytochrome C in mitochondria; assay type: cell-based; conditions: A549, 2, 4, and 8 μM, 48 h
Method: as §3

`COC(=O)c1cc2c3ccccc3n(Cc3ccccc3F)c2cn1` [Compound 4D] showed an IC50 [1] of 35.38 ± 0.01 µM, an IC50 [2] of 17.8 ± 0.66 µM and an IC50 [3] of 35.6 ± 1.33 µM. The IC50 [4] was 13.94 ± 0.07 µM, the ΔTm (CT DNA) was 3.5 °C and the “Morphological observation of cell apoptosis (Hoechst 33342/PI)” value (“Morphological observation” for short) (A549 cells) was “could induce cell apoptosis and further cell necrosis”.

With `Cc1ccccc1Cn1c2ccccc2c2cc(C(=O)OCCCCCOC(=O)c3cc4c5ccccc5n(Cc5ccccc5C)c4cn3)ncc21` [Compound 6i] the “Expression of bcl-2 protein, western blot” value (bcl-2 protein) was “decreased in a dose-dependent manner”, the IC50 [1] was 37.99 ± 0.1 µM and the IC50 [2] was 7.18 ± 0.01 µM. It also gave an IC50 [3] of 14.2 ± 0.28 µM, an IC50 [4] of 6.93 ± 0.33 µM and a ΔTm (CT DNA) of 8.5 °C. For the same compound, the “Morphological observation” value (A549 cells) was “could induce cell apoptosis and further cell necrosis” and the “Level of Cyt C (in mitochondria), western blot” value [5] was “decreased in a dose-dependent manner”.

With `COC(=O)c1cc2c3ccccc3n(Cc3ccccc3C)c2cn1` [Compound 4B] the IC50 [1] was 51.78 ± 0.1 µM, the IC50 [2] was 42.3 ± 2.13 µM and the IC50 [3] was > 80 µM. For the same compound, the IC50 [4] was 39.2 ± 1.18 µM, the ΔTm (CT DNA) was 7.5 °C and the “Morphological observation” value (A549 cells) was “could only induce cell apoptosis in a dose-dependent manner”.

In the case of `O=C(OCCCCCOC(=O)c1cc2c3ccccc3n(Cc3ccccc3F)c2cn1)c1cc2c3ccccc3n(Cc3ccccc3F)c2cn1` [Compound 6u], the “Expression of bcl-2 protein, western blot” value (bcl-2 protein) is reported as “decreased in a dose-dependent manner”, the IC50 [1] is reported as 39.89 ± 0.05 µM and the IC50 [2] is reported as 5.86 ± 0.08 µM. The IC50 [3] was 16.68 ± 0.11 µM, the IC50 [4] was 5.61 ± 0.04 µM and the ΔTm (CT DNA) was 9.0 °C. For the same compound, the “Morphological observation” value (A549 cells) was “could induce cell apoptosis and further cell necrosis” and the “Level of Cyt C (in mitochondria), western blot” value [5] was “decreased in a dose-dependent manner”.
